Assay in all cases: relative viability (nuclei count vs DMSO), 5 days (fraction); higher = more cells survive
Compound in the test “OSI-027 + Navitoclax”: COc1cccc2cc(-c3nc([C@H]4CC[C@H](C(=O)O)CC4)n4ncnc(N)c34)[nH]c12 [OSI-027] + CC1(C)CCC(c2ccc(Cl)cc2)=C(CN2CCN(c3ccc(C(=O)NS(=O)(=O)c4ccc(N[C@H](CCN5CCOCC5)CSc5ccccc5)c(S(=O)(=O)C(F)(F)F)c4)cc3)CC2)C1 [Navitoclax] (partner 0.5 µM)
The method, boiled down: (§1)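 Values are medians from duplicate plates. Each reflects relative viability, defined as the nuclei count of treated wells over that of vehicle wells. Lung cancer cell lines in 1536-well plates were pin-tool dosed one day after seeding with one drug alone or with a fixed anchor-drug dose plus five library-drug doses (not always all listed) in √10 steps, then fixed, stained and imaged at 4× after 5 days.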

Compound in the test “OSI-027 + Crizotinib”: COc1cccc2cc(-c3nc([C@H]4CC[C@H](C(=O)O)CC4)n4ncnc(N)c34)[nH]c12 [OSI-027] + C[C@@H](Oc1cc(-c2cnn(C3CCNCC3)c2)cnc1N)c1c(Cl)ccc(F)c1Cl [Crizotinib] (partner 1 µM)
An outline of the steps:
as §1

Compound in the test “Vemurafenib + Dasatinib”: CCCS(=O)(=O)Nc1ccc(F)c(C(=O)c2c[nH]c3ncc(-c4ccc(Cl)cc4)cc23)c1F [Vemurafenib] + Cc1nc(Nc2ncc(C(=O)Nc3c(C)cccc3Cl)s2)cc(N2CCN(CCO)CC2)n1 [Dasatinib] (partner 0.075 µM)
An outline of the steps:
as §1

Compound in the test “Vemurafenib + AZD7762”: CCCS(=O)(=O)Nc1ccc(F)c(C(=O)c2c[nH]c3ncc(-c4ccc(Cl)cc4)cc23)c1F [Vemurafenib] + NC(=O)Nc1cc(-c2cccc(F)c2)sc1C(=O)N[C@H]1CCCNC1 [AZD7762] (partner 0.2 µM)
An outline of the steps:
as §1

The source of these data is the supplement of paper PMC10307832.

Regarding NCI-H1299, the relative viability turned out to be 1.07 with OSI-027 + Navitoclax (first compound 0.01 µM); 1.05 with OSI-027 + Navitoclax (first compound 0.03162 µM); 1.08 with OSI-027 + Navitoclax (first compound 0.1 µM); 1.1 with OSI-027 + Navitoclax (first compound 0.3162 µM); 1 with OSI-027 + Navitoclax (first compound 1 µM); 0.994 in the test with OSI-027 + Crizotinib (first compound 0.01 µM). For the same cell line, the relative viability with OSI-027 + Crizotinib (first compound 0.03162 µM) was determined as 0.984; in the test with OSI-027 + Crizotinib (first compound 0.1 µM) it was 0.937; with OSI-027 + Crizotinib (first compound 0.3162 µM), 1.04; with OSI-027 + Crizotinib (first compound 1 µM), 0.937.

LU99A: the relative viability came to 0.754 with OSI-027 + Navitoclax (first compound 0.01 µM); 0.651 in the test with OSI-027 + Navitoclax (first compound 0.03162 µM); 0.695 with OSI-027 + Navitoclax (first compound 0.1 µM); 0.427 in the test with OSI-027 + Navitoclax (first compound 0.3162 µM); 0.154 with OSI-027 + Navitoclax (first compound 1 µM); 0.522 with OSI-027 + Crizotinib (first compound 0.01 µM). Further, the relative viability is 0.522 in the test with OSI-027 + Crizotinib (first compound 0.03162 µM); 0.46 with OSI-027 + Crizotinib (first compound 0.1 µM); 0.313 with OSI-027 + Crizotinib (first compound 0.3162 µM); 0.208 with OSI-027 + Crizotinib (first compound 1 µM); 0.425 in the test with Vemurafenib + Dasatinib (first compound 0.03162 µM); 0.554 with Vemurafenib + Dasatinib (first compound 0.1 µM). In addition, the relative viability in the test with Vemurafenib + Dasatinib (first compound 0.3162 µM) came to 0.389; with Vemurafenib + Dasatinib (first compound 1 µM), 0.431; in the test with Vemurafenib + AZD7762 (first compound 0.03162 µM), 0.369; with Vemurafenib + AZD7762 (first compound 0.1 µM) it was 0.353; in the test with Vemurafenib + AZD7762 (first compound 1 µM), 0.385.

As for NCI-H2009, the relative viability with OSI-027 + Navitoclax (first compound 0.01 µM) was found to be 1.16; in the test with OSI-027 + Navitoclax (first compound 0.03162 µM) it was 1.15; with OSI-027 + Navitoclax (first compound 0.1 µM) it was 1.07; with OSI-027 + Navitoclax (first compound 0.3162 µM) it was 1.07; with OSI-027 + Navitoclax (first compound 1 µM) it was 0.619; with OSI-027 + Crizotinib (first compound 0.01 µM) it was 1.05. The relative viability in the test with OSI-027 + Crizotinib (first compound 0.03162 µM) came to 0.998; with OSI-027 + Crizotinib (first compound 0.1 µM), 0.879; with OSI-027 + Crizotinib (first compound 0.3162 µM) it was 0.941; with OSI-027 + Crizotinib (first compound 1 µM), 0.72; with Vemurafenib + Dasatinib (first compound 0.03162 µM), 0.294; with Vemurafenib + Dasatinib (first compound 0.1 µM), 0.278. The relative viability with Vemurafenib + Dasatinib (first compound 0.3162 µM) stood at 0.171; with Vemurafenib + Dasatinib (first compound 1 µM), 0.254.

Take LCLC-97TM1: the relative viability worked out at 0.36 with OSI-027 + Navitoclax (first compound 0.01 µM); 0.331 with OSI-027 + Navitoclax (first compound 0.03162 µM); 0.381 with OSI-027 + Navitoclax (first compound 0.1 µM); 0.214 with OSI-027 + Navitoclax (first compound 0.3162 µM); 0.159 with OSI-027 + Navitoclax (first compound 1 µM); 0.246 with OSI-027 + Crizotinib (first compound 0.01 µM). Further, the relative viability is 0.407 with OSI-027 + Crizotinib (first compound 0.03162 µM); 0.322 in the test with OSI-027 + Crizotinib (first compound 0.1 µM); 0.267 with OSI-027 + Crizotinib (first compound 0.3162 µM); 0.105 in the test with OSI-027 + Crizotinib (first compound 1 µM); 0.76 with Vemurafenib + Dasatinib (first compound 0.03162 µM); 0.853 with Vemurafenib + Dasatinib (first compound 0.1 µM). Moreover, the relative viability in the test with Vemurafenib + Dasatinib (first compound 0.3162 µM) is 1.05; in the test with Vemurafenib + Dasatinib (first compound 1 µM), 0.685; with Vemurafenib + AZD7762 (first compound 0.03162 µM) it was 0.286; in the test with Vemurafenib + AZD7762 (first compound 0.1 µM), 0.298; with Vemurafenib + AZD7762 (first compound 0.3162 µM) it was 0.326; with Vemurafenib + AZD7762 (first compound 1 µM), 0.342.

Consider NCI-H2342, for which the relative viability with Vemurafenib + Dasatinib (first compound 0.03162 µM) was found to be 0.313; with Vemurafenib + Dasatinib (first compound 0.1 µM) it was 0.304; with Vemurafenib + Dasatinib (first compound 0.3162 µM), 0.266; with Vemurafenib + Dasatinib (first compound 1 µM) it was 0.326; in the test with Vemurafenib + AZD7762 (first compound 0.03162 µM), 0.462; with Vemurafenib + AZD7762 (first compound 0.1 µM), 0.499. Further, the relative viability worked out at 0.47 with Vemurafenib + AZD7762 (first compound 0.3162 µM) and 0.518 with Vemurafenib + AZD7762 (first compound 1 µM).

Consider A549, for which the relative viability in the test with OSI-027 + Navitoclax (first compound 0.01 µM) was 1.16; with OSI-027 + Navitoclax (first compound 0.03162 µM) it was 1.24; in the test with OSI-027 + Navitoclax (first compound 0.1 µM) it was 1.01; with OSI-027 + Navitoclax (first compound 0.3162 µM) it was 0.971; in the test with OSI-027 + Navitoclax (first compound 1 µM), 0.319; with OSI-027 + Crizotinib (first compound 0.01 µM), 0.782. In addition, the relative viability is 0.711 in the test with OSI-027 + Crizotinib (first compound 0.03162 µM), 0.704 with OSI-027 + Crizotinib (first compound 0.1 µM), 0.45 with OSI-027 + Crizotinib (first compound 0.3162 µM) and 0.167 with OSI-027 + Crizotinib (first compound 1 µM).
